Data from PubChem BioAssay (NCI).
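In this assay, cells in 96-well plates receive the compound at five concentrations for 48 hours. Endpoints are linearly interpolated between the surrounding concentrations. TGI: concentration producing complete growth inhibition.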

Tested on: SK-MEL-28 melanoma
Assay: DTP human tumour cell line panel, 48 h

SMILES	TGI [µM]
Br[Se]c1ccccn1	37.5
CCOC(=O)c1cn2c(n1)sc1cc(F)ccc12	> 100
N#C/C(N)=C(\C#N)NC=NCCO	> 100
CC(=O)Nc1cc2ccc(=O)oc2cc1Cl	> 100

Tested on: IGROV1 ovarian
Assay: DTP human tumour cell line panel, 48 h

SMILES	TGI [µM]
Br[Se]c1ccccn1	31.5
CCOC(=O)c1cn2c(n1)sc1cc(F)ccc12	> 100
N#C/C(N)=C(\C#N)NC=NCCO	> 100
CC(=O)Nc1cc2ccc(=O)oc2cc1Cl	> 100

Tested on: SR leukemia
Assay: DTP human tumour cell line panel, 48 h

SMILES	TGI [µM]
Br[Se]c1ccccn1	65.8
CCOC(=O)c1cn2c(n1)sc1cc(F)ccc12	> 100
N#C/C(N)=C(\C#N)NC=NCCO	> 100
CC(=O)Nc1cc2ccc(=O)oc2cc1Cl	> 100

Tested on: UO-31 renal
Assay: DTP human tumour cell line panel, 48 h

SMILES	TGI [µM]
Br[Se]c1ccccn1	31.2
CCOC(=O)c1cn2c(n1)sc1cc(F)ccc12	> 100
N#C/C(N)=C(\C#N)NC=NCCO	> 100
CC(=O)Nc1cc2ccc(=O)oc2cc1Cl	> 100

Tested on: NCI/ADR-RES ovarian
Assay: DTP human tumour cell line panel, 48 h

SMILES	TGI [µM]
Br[Se]c1ccccn1	61.6
CCOC(=O)c1cn2c(n1)sc1cc(F)ccc12	> 100
N#C/C(N)=C(\C#N)NC=NCCO	> 100
CC(=O)Nc1cc2ccc(=O)oc2cc1Cl	> 100

Tested on: SK-MEL-5 melanoma
Assay: DTP human tumour cell line panel, 48 h

SMILES	TGI [µM]
Br[Se]c1ccccn1	28.9
CCOC(=O)c1cn2c(n1)sc1cc(F)ccc12	> 100
N#C/C(N)=C(\C#N)NC=NCCO	> 100
CC(=O)Nc1cc2ccc(=O)oc2cc1Cl	> 100

Tested on: OVCAR-4 ovarian
Assay: DTP human tumour cell line panel, 48 h

SMILES	TGI [µM]
Br[Se]c1ccccn1	30.9
CCOC(=O)c1cn2c(n1)sc1cc(F)ccc12	> 100
N#C/C(N)=C(\C#N)NC=NCCO	> 100
CC(=O)Nc1cc2ccc(=O)oc2cc1Cl	> 100

Tested on: SW-620 colon
Assay: DTP human tumour cell line panel, 48 h

SMILES	TGI [µM]
Br[Se]c1ccccn1	51.4
CCOC(=O)c1cn2c(n1)sc1cc(F)ccc12	> 100
N#C/C(N)=C(\C#N)NC=NCCO	> 100
CC(=O)Nc1cc2ccc(=O)oc2cc1Cl	> 100

Tested on: BT-549 breast
Assay: DTP human tumour cell line panel, 48 h

SMILES	TGI [µM]
Br[Se]c1ccccn1	32.9
CCOC(=O)c1cn2c(n1)sc1cc(F)ccc12	> 100
N#C/C(N)=C(\C#N)NC=NCCO	> 100
CC(=O)Nc1cc2ccc(=O)oc2cc1Cl	> 100

Tested on: MDA-MB-435
Assay: DTP human tumour cell line panel, 48 h

SMILES	TGI [µM]
Br[Se]c1ccccn1	31.8
CCOC(=O)c1cn2c(n1)sc1cc(F)ccc12	> 100
N#C/C(N)=C(\C#N)NC=NCCO	> 100
CC(=O)Nc1cc2ccc(=O)oc2cc1Cl	> 100

Tested on: DU-145 prostate
Assay: DTP human tumour cell line panel, 48 h

SMILES	TGI [µM]
Br[Se]c1ccccn1	30.8
CCOC(=O)c1cn2c(n1)sc1cc(F)ccc12	> 100
N#C/C(N)=C(\C#N)NC=NCCO	> 100
CC(=O)Nc1cc2ccc(=O)oc2cc1Cl	> 100

Tested on: U251 CNS
Assay: DTP human tumour cell line panel, 48 h

SMILES	TGI [µM]
Br[Se]c1ccccn1	29
CCOC(=O)c1cn2c(n1)sc1cc(F)ccc12	> 100
N#C/C(N)=C(\C#N)NC=NCCO	> 100
CC(=O)Nc1cc2ccc(=O)oc2cc1Cl	> 100

Tested on: OVCAR-3 ovarian
Assay: DTP human tumour cell line panel, 48 h

SMILES	TGI [µM]
Br[Se]c1ccccn1	28.9
CCOC(=O)c1cn2c(n1)sc1cc(F)ccc12	> 100
N#C/C(N)=C(\C#N)NC=NCCO	> 100
CC(=O)Nc1cc2ccc(=O)oc2cc1Cl	> 100

Tested on: CAKI-1 renal
Assay: DTP human tumour cell line panel, 48 h

SMILES	TGI [µM]
Br[Se]c1ccccn1	33
CCOC(=O)c1cn2c(n1)sc1cc(F)ccc12	> 100
N#C/C(N)=C(\C#N)NC=NCCO	> 100
CC(=O)Nc1cc2ccc(=O)oc2cc1Cl	> 100

Tested on: A498 renal
Assay: DTP human tumour cell line panel, 48 h

SMILES	TGI [µM]
Br[Se]c1ccccn1	34
CCOC(=O)c1cn2c(n1)sc1cc(F)ccc12	> 100
N#C/C(N)=C(\C#N)NC=NCCO	> 100
CC(=O)Nc1cc2ccc(=O)oc2cc1Cl	> 100

Tested on: MALME-3M melanoma
Assay: DTP human tumour cell line panel, 48 h

SMILES	TGI [µM]
Br[Se]c1ccccn1	31.2
CCOC(=O)c1cn2c(n1)sc1cc(F)ccc12	> 100
N#C/C(N)=C(\C#N)NC=NCCO	> 100
CC(=O)Nc1cc2ccc(=O)oc2cc1Cl	> 100

Tested on: SN12C renal
Assay: DTP human tumour cell line panel, 48 h

SMILES	TGI [µM]
Br[Se]c1ccccn1	33.1
CCOC(=O)c1cn2c(n1)sc1cc(F)ccc12	> 100
N#C/C(N)=C(\C#N)NC=NCCO	> 100
CC(=O)Nc1cc2ccc(=O)oc2cc1Cl	> 100

Tested on: PC-3 prostate
Assay: DTP human tumour cell line panel, 48 h

SMILES	TGI [µM]
Br[Se]c1ccccn1	30
CCOC(=O)c1cn2c(n1)sc1cc(F)ccc12	> 100
N#C/C(N)=C(\C#N)NC=NCCO	> 100
CC(=O)Nc1cc2ccc(=O)oc2cc1Cl	> 100

Tested on: SNB-75 CNS
Assay: DTP human tumour cell line panel, 48 h

SMILES	TGI [µM]
Br[Se]c1ccccn1	30.7
CCOC(=O)c1cn2c(n1)sc1cc(F)ccc12	> 100
N#C/C(N)=C(\C#N)NC=NCCO	> 100
CC(=O)Nc1cc2ccc(=O)oc2cc1Cl	> 100

Tested on: OVCAR-5 ovarian
Assay: DTP human tumour cell line panel, 48 h

SMILES	TGI [µM]
Br[Se]c1ccccn1	35.1
CCOC(=O)c1cn2c(n1)sc1cc(F)ccc12	> 100
N#C/C(N)=C(\C#N)NC=NCCO	> 100
CC(=O)Nc1cc2ccc(=O)oc2cc1Cl	> 100

Tested on: TK-10 renal
Assay: DTP human tumour cell line panel, 48 h

SMILES	TGI [µM]
Br[Se]c1ccccn1	34.5
CCOC(=O)c1cn2c(n1)sc1cc(F)ccc12	> 100
N#C/C(N)=C(\C#N)NC=NCCO	> 100

Tested on: HL-60(TB) leukemia
Assay: DTP human tumour cell line panel, 48 h

SMILES	TGI [µM]
Br[Se]c1ccccn1	40.3
N#C/C(N)=C(\C#N)NC=NCCO	> 100
CC(=O)Nc1cc2ccc(=O)oc2cc1Cl	> 100

Tested on: MDA-N
Assay: DTP human tumour cell line panel, 48 h

SMILES	TGI [µM]
Br[Se]c1ccccn1	32.2
CCOC(=O)c1cn2c(n1)sc1cc(F)ccc12	> 100
N#C/C(N)=C(\C#N)NC=NCCO	> 100
CC(=O)Nc1cc2ccc(=O)oc2cc1Cl	> 100

Tested on: HOP-92 NSCLC
Assay: DTP human tumour cell line panel, 48 h

SMILES	TGI [µM]
Br[Se]c1ccccn1	33
CCOC(=O)c1cn2c(n1)sc1cc(F)ccc12	> 100
CC(=O)Nc1cc2ccc(=O)oc2cc1Cl	> 100

Tested on: NCI-H23 lung
Assay: DTP human tumour cell line panel, 48 h

SMILES	TGI [µM]
Br[Se]c1ccccn1	39.3
CCOC(=O)c1cn2c(n1)sc1cc(F)ccc12	> 100
N#C/C(N)=C(\C#N)NC=NCCO	> 100
CC(=O)Nc1cc2ccc(=O)oc2cc1Cl	> 100

Tested on: OVCAR-8 ovarian
Assay: DTP human tumour cell line panel, 48 h

SMILES	TGI [µM]
Br[Se]c1ccccn1	36
CCOC(=O)c1cn2c(n1)sc1cc(F)ccc12	> 100
N#C/C(N)=C(\C#N)NC=NCCO	> 100
CC(=O)Nc1cc2ccc(=O)oc2cc1Cl	> 100

Tested on: HS 578T breast
Assay: DTP human tumour cell line panel, 48 h

SMILES	TGI [µM]
Br[Se]c1ccccn1	40.3
CCOC(=O)c1cn2c(n1)sc1cc(F)ccc12	> 100
N#C/C(N)=C(\C#N)NC=NCCO	> 100
CC(=O)Nc1cc2ccc(=O)oc2cc1Cl	> 100

Tested on: 786-0 renal
Assay: DTP human tumour cell line panel, 48 h

SMILES	TGI [µM]
Br[Se]c1ccccn1	32.6
CCOC(=O)c1cn2c(n1)sc1cc(F)ccc12	> 100
N#C/C(N)=C(\C#N)NC=NCCO	> 100
CC(=O)Nc1cc2ccc(=O)oc2cc1Cl	> 100

Tested on: A549 NSCLC
Assay: DTP human tumour cell line panel, 48 h

SMILES	TGI [µM]
Br[Se]c1ccccn1	44.3
CCOC(=O)c1cn2c(n1)sc1cc(F)ccc12	> 100
N#C/C(N)=C(\C#N)NC=NCCO	> 100
CC(=O)Nc1cc2ccc(=O)oc2cc1Cl	> 100

Tested on: HCT-15 colon
Assay: DTP human tumour cell line panel, 48 h

SMILES	TGI [µM]
Br[Se]c1ccccn1	38.4
CCOC(=O)c1cn2c(n1)sc1cc(F)ccc12	> 100
